Tested on: c-myc in 22RV-1 cells
Experiment: Human c-myc ELISA assay
Format: cell-based
Details: Homo sapiens; for Emax: 22Rv1, 18 h, read-out: Degradation of BRD4: Maximum inhibition (%) c-Myc ELISA in 22RV1 cells; for DC50: 22Rv1, read-out: Degradation of BRD4: DC50 (uM) c-Myc ELISA in 22RV1 cells
How it was run: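 c-myc levels measured by ELISA in RIPA lysates of 22RV-1 cells, calibrated with a 333-0 pg/ml standard curve. Lysates came from cells exposed for 18 h to an 8-point, 1:3 dose series starting at 300 nM or 1 μM final in 0.1% DMSO. Suppression potency given as DC50.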

Row | Structure (SMILES) | Emax [%] | DC50 [µM]
1 | Cc1ncsc1-c1ccc([C@H](C)NC(=O)[C@@H]2C[C@@H](O)CN2C(=O)[C@@H](NC(=O)COC[C@H](O)CN2CCN(C(=O)C[C@@H]3N=C(c4ccc(Cl)cc4)c4c(sc(C)c4C)-n4c(C)nnc43)CC2)C(C)(C)C)cc1 [Example 328] | 61 | 0.1 to 1
2 | Cc1ncsc1-c1ccc(CNC(=O)[C@@H]2C[C@@H](O)CN2C(=O)[C@@H](c2cc(Oc3ccc(O[C@H]4C[C@@H](NC(=O)C[C@@H]5N=C(c6ccc(Cl)cc6)c6c(sc(C)c6C)-n6c(C)nnc65)C4)nc3)no2)C(C)C)cc1 [Example 325] | 81.5 | 0.01 to 0.1
3 | Cc1sc2c(c1C)C(c1ccc(Cl)cc1)=N[C@@H](CC(=O)N[C@H]1C[C@H](Oc3ccc(CC(=O)N[C@H](C(=O)N4C[C@H](O)C[C@H]4C(=O)N[C@@H](C)c4ccc(-n5ccnc5C)cc4)C(C)(C)C)cc3)C1)c1nnc(C)n1-2 [Example 272] | 95.9 | 0.01 to 0.1
4 | Cc1ncsc1-c1ccc([C@H](C)NC(=O)[C@@H]2C[C@@H](O)CN2C(=O)[C@@H](C(C)C)n2cc(-c3ccc(O[C@H]4C[C@H](NC(=O)C[C@@H]5N=C(c6ccc(Cl)cc6)c6c(sc(C)c6C)-n6c(C)nnc65)C4)nc3)cn2)cc1 [Example 268] | 98 | 0.01 to 0.1
5 | [2H]C([2H])([2H])C([C@H](NC(=O)c1cc2cc(O[C@H]3C[C@@H](NC(=O)C[C@@H]4N=C(c5ccc(Cl)cc5)c5c(sc(C)c5C)-n5c(C)nnc54)C3)ccc2o1)C(=O)N1C[C@H](O)C[C@H]1C(=O)N[C@@H](C)c1ccc(-c2scnc2C)cc1)(C([2H])([2H])[2H])C([2H])([2H])[2H] [Example 364, (2S,4R)-1-[(2S)-3,3-bis(^2H3)methyl-2-({5-[(1,3-cis)-3-{2-[(9S)-7-(4-chlorophenyl)-4,5,13-trimethyl-3-thia-1,8,11,12-tetraazatricyclo[8.3.0.0^2,^6]trideca-2(6),4,7,10,12-pentaen-9-yl]acetamido}cyclobutoxy]-1-benzofuran-2-yl}formamido)(4,4,4-^2H3)butanoyl]-4-hydroxy-N-[(1S)-1-[4-(4-methyl-1,3-thiazol-5-yl)phenyl]ethyl]pyrrolidine-2-carboxamide] | 100 | < 0.01
6 | Cc1ncsc1-c1ccc([C@H](C)NC(=O)[C@@H]2C[C@@H](O)CN2C(=O)[C@H](C(C)C)n2cc(-c3ccnc(N4CC[C@H](NC(=O)C[C@@H]5N=C(c6ccc(Cl)cc6)c6c(sc(C)c6C)-n6c(C)nnc65)C4)c3)cn2)cc1 [Example 264] | 97 | < 0.01
7 | Cc1ncsc1-c1ccc([C@H](C)NC(=O)[C@@H]2C[C@@H](O)CN2C(=O)[C@@H](NC(=O)COc2cc(F)cc(O[C@H]3C[C@H](NC(=O)C[C@@H]4N=C(c5ccc(Cl)cc5)c5c(sc(C)c5C)-n5c(C)nnc54)C3)c2)C(C)(C)C)cc1 [Example 215] | 98 | < 0.01
8 | Cc1ncsc1-c1ccc(CNC(=O)[C@@H]2C[C@@H](O)CN2C(=O)[C@@H](NC(=O)COCCOCCOCCCOCCOCCN(C)C(=O)C[C@@H]2N=C(c3ccc(Cl)cc3)c3c(sc(C)c3C)-n3c(C)nnc32)C(C)(C)C)cc1 [Example 17, (2S,4R)-1-[(2S)-2-(18-{2-[(9S)-7-(4-chlorophenyl)-4,5,13-trimethyl-3-thia-1,8,11,12-tetraazatricyclo[8.3.0.0^2,^6]trideca-2(6),4,7,10,12-pentaen-9-yl]-N-methylacetamido}-3,6,9,13,16-pentaoxaoctadecanamido)-3,3-dimethylbutanoyl]-4-hydroxy-N-{[4-(4-methyl-1,3-thiazol-5-yl)phenyl]methyl}pyrrolidine-2-carboxamide] | 85 | 0.1 to 1
9 | Cc1ncsc1-c1ccc([C@H](C)NC(=O)[C@@H]2C[C@@H](O)CN2C(=O)[C@@H](NC(=O)c2cc3cc(OCCNC(=O)C[C@@H]4N=C(c5ccc(Cl)cc5)c5c(sc(C)c5C)-n5c(C)nnc54)ccc3o2)C(C)(C)C)cc1 [Example 165, (2S,4R)-1-[(2S)-2-{[5-(2-{2-[(9S)-7-(4-chlorophenyl)-4,5,13-trimethyl-3-thia-1,8,11,12-tetraazatricyclo[8.3.0.0^2,^6]trideca-2(6),4,7,10,12-pentaen-9-yl]acetamido}ethoxy)-1-benzofuran-2-yl]formamido}-3,3-dimethylbutanoyl]-4-hydroxy-N-[(1S)-1-[4-(4-methyl-1,3-thiazol-5-yl)phenyl]ethyl]pyrrolidine-2-carboxamide] | 97 | < 0.01
10 | Cc1ncsc1-c1ccc([C@H](C)NC(=O)[C@@H]2C[C@@H](O)CN2C(=O)[C@@H](NC(=O)COc2ccc(N3CC[C@H](NC(=O)C[C@@H]4N=C(c5ccc(Cl)cc5)c5c(sc(C)c5C)-n5c(C)nnc54)C3)nc2)C(C)(C)C)cc1 [Example 236] | 88.9 | 0.01 to 0.1
11 | Cc1ncsc1-c1ccc(CNC(=O)C2C[C@@H](O)CN2C(=O)[C@@H](NC(=O)c2cn3cc(OCCNC(=O)C[C@@H]4N=C(c5ccc(Cl)cc5)c5c(sc(C)c5C)-n5c(C)nnc54)ccc3n2)C(C)(C)C)cc1 (stereo partly drawn) [Example 96] | 67.9 | 0.1 to 1
12 | Cc1ncsc1-c1ccc(CNC(=O)[C@@H]2C[C@@H](O)CN2C(=O)[C@H](C(C)C)n2cc(-c3cccc(OCCNC(=O)C[C@@H]4N=C(c5ccc(Cl)cc5)c5c(sc(C)c5C)-n5c(C)nnc54)c3)cn2)cc1 [Example 163] | 96.5 | < 0.01
13 | Cc1ncsc1-c1ccc(CNC(=O)[C@@H]2C[C@@H](O)CN2C(=O)[C@@H](NC(=O)COCCCOCCCOc2ccc(NC(=O)C[C@@H]3N=C(c4ccc(Cl)cc4)c4c(sc(C)c4C)-n4c(C)nnc43)cc2F)C(C)(C)C)cc1 [Example 19] | 92 | 0.01 to 0.1
14 | Cc1sc2c(c1C)C(c1ccc(Cl)cc1)=N[C@@H](CC(=O)N[C@H]1C[C@@H](Oc3cccc(-c4cnn([C@@H](C(=O)N5C[C@H](O)C[C@H]5C(=O)N[C@@H](C)c5ccc(-n6ccnc6C)cc5)C(C)C)c4)c3)C1)c1nnc(C)n1-2 [Example 298] | 25.5 | > 1
15 | Cc1ncsc1-c1ccc([C@H](C)NC(=O)[C@@H]2C[C@@H](O)CN2C(=O)[C@@H](NC(=O)CCc2ccc(O[C@H]3C[C@@H](NC(=O)C[C@@H]4N=C(c5ccc(Cl)cc5)c5c(sc(C)c5C)-n5c(C)nnc54)C3)nc2)C(C)(C)C)cc1 [Example 171] | 97 | < 0.01
16 | Cc1sc2c(c1C)C(c1ccc(Cl)cc1)=N[C@@H](CC(=O)NCCOCCCOCC(=O)N[C@H](C(=O)N1C[C@H](O)C[C@H]1C(=O)NCc1ccc(C#N)cc1)C(C)(C)C)c1nnc(C)n1-2 [Example 75] | 58.5 | 0.1 to 1
17 | Cc1ncsc1-c1ccc([C@H](C)NC(=O)[C@@H]2C[C@@H](O)CN2C(=O)[C@@H](NC(=O)CCc2cc(F)cc(O[C@H]3C[C@@H](NC(=O)C[C@@H]4N=C(c5ccc(Cl)cc5)c5c(sc(C)c5C)-n5c(C)nnc54)C3)c2)C(C)(C)C)cc1 [Example 183, (2S,4R)-1-[(2S)-2-(3-{3-fluoro-5-[(1,3-cis)-3-{2-[(9S)-7-(4-chlorophenyl)-4,5,13-trimethyl-3-thia-1,8,11,12-tetraazatricyclo[8.3.0.0^2,^6]trideca-2(6),4,7,10,12-pentaen-9-yl]acetamido}cyclobutoxy]phenyl}propanamido)-3,3-dimethylbutanoyl]-4-hydroxy-N-[(1S)-1-[4-(4-methyl-1,3-thiazol-5-yl)phenyl]ethyl]pyrrolidine-2-carboxamide] | 99 | < 0.01
18 | Cc1ncsc1-c1ccc(CNC(=O)[C@@H]2C[C@@H](O)CN2C(=O)[C@@H](NC(=O)COCCCOCCCOc2ccc(NC(=O)C[C@@H]3N=C(c4ccccc4)c4c(sc(C)c4C)-n4c(C)nnc43)cc2)C(C)(C)C)cc1 [Example 55, (2S,4R)-1-[(2S)-3,3-dimethyl-2-(2-{3-[3-(4-{2-[(9S)-4,5,13-trimethyl-7-phenyl-3-thia-1,8,11,12-tetraazatricyclo[8.3.0.0^2,^6]trideca-2(6),4,7,10,12-pentaen-9-yl]acetamido}phenoxy)propoxy]propoxy}acetamido)butanoyl]-4-hydroxy-N-{[4-(4-methyl-1,3-thiazol-5-yl)phenyl]methyl}pyrrolidine-2-carboxamide] | 100 | < 0.01
19 | Cc1ncsc1-c1ccc([C@H](C)NC(=O)[C@@H]2C[C@@H](O)CN2C(=O)[C@@H](NC(=O)COc2ccnc(N3CCN(C(=O)C[C@@H]4N=C(c5ccc(Cl)cc5)c5c(sc(C)c5C)-n5c(C)nnc54)CC3)c2)C(C)(C)C)cc1 [Example 327, (2S,4R)-1-[(2S)-2-(2-{[2-(4-{2-[(9S)-7-(4-chlorophenyl)-4,5,13-trimethyl-3-thia-1,8,11,12-tetraazatricyclo[8.3.0.0^2,^6]trideca-2(6),4,7,10,12-pentaen-9-yl]acetyl}piperazin-1-yl)pyridin-4-yl]oxy}acetamido)-3,3-dimethylbutanoyl]-4-hydroxy-N-[(1S)-1-[4-(4-methyl-1,3-thiazol-5-yl)phenyl]ethyl]pyrrolidine-2-carboxamide] | 96 | < 0.01
20 | Cc1ncsc1-c1ccc(CNC(=O)[C@@H]2C[C@@H](O)CN2C(=O)[C@@H](C(C)C)n2cc(-c3cccc(O[C@H]4C[C@H](NC(=O)C[C@@H]5N=C(c6ccc(Cl)cc6)c6c(sc(C)c6C)-n6c(C)nnc65)C4)c3)cn2)cc1 [Example 216] | 14.4 | > 1
21 | Cc1ncsc1-c1ccc([C@H](C)NC(=O)[C@@H]2C[C@@H](O)CN2C(=O)[C@@H](NC(=O)CN2CCC(N3C[C@@H]4C[C@H]3CN4C(=O)C[C@@H]3N=C(c4ccc(Cl)cc4)c4c(sc(C)c4C)-n4c(C)nnc43)CC2)C(C)(C)C)cc1 [Example 368, (2S,4R)-1-[(2S)-2-(2-{4-[(1S,4S)-5-{2-[(9S)-7-(4-chlorophenyl)-4,5,13-trimethyl-3-thia-1,8,11,12-tetraazatricyclo[8.3.0.0^2,6]trideca-2(6),4,7,10,12-pentaen-9-yl]acetyl}-2,5-diazabicyclo[2.2.1]heptan-2-yl]piperidin-1-yl}acetamido)-3,3-dimethylbutanoyl]-4-hydroxy-N-[(1S)-1-[4-(4-methyl-1,3-thiazol-5-yl)phenyl]ethyl]pyrrolidine-2-carboxamide] | 100 | 0.01 to 0.1
